Measurements published in ChEMBL document CHEMBL1159318, “Anti-inflammatory and anti-tumor-promoting effects of cucurbitane glycosides from the roots of Bryonia dioica” (J Nat Prod, 2002).

Tests used:
[1] = tested on: Mus musculus; assay: Antiinflammatory activity against ICR mouse assessed as inhibition of TPA-induced ear edema compound administered topically preincubated 30 mins before TPA challenge; type: functional
[2] = tested on: Mus musculus; assay: Antiinflammatory activity against ICR mouse assessed as inhibition ratio of TPA-induced ear edema at 1 mg/ear, topically preincubated 30 mins before TPA challenge relative to TPA; type: functional; design: scale not given: the % may be the effect or the level left
[3] = tested on: Raji; assay: Inhibition of TPA-induced EBV-early antigen activation in human Raji cells at 10 molar ratio after 48 hrs relative to TPA; values are per cent of control; settings: human gammaherpesvirus 4
[4] = tested on: Raji; assay: Inhibition of TPA-induced EBV-early antigen activation in human Raji cells at 500 molar ratio after 48 hrs relative to TPA; values are per cent of control; settings: human gammaherpesvirus 4
[5] = tested on: Raji; assay: Inhibition of TPA-induced EBV-early antigen activation in human Raji cells at 100 molar ratio after 48 hrs relative to TPA; values are per cent of control; settings: human gammaherpesvirus 4
[6] = tested on: Raji; assay: Inhibition of TPA-induced EBV-early antigen activation in human Raji cells at 1000 molar ratio after 48 hrs relative to TPA; values are per cent of control; settings: human gammaherpesvirus 4
[7] = Cytotoxicity against human Raji cells assessed as cell viability at 1000 molar ratio after 48 hrs by trypan blue assay; type: cell-based; settings: read-out: Activity

Structure (SMILES) | ID50 [1] [mg] | Activity [2] [%] | level, % of control [3] [%] | level, % of control [4] [%] | level, % of control [5] [%] | level, % of control [6] [%] | viability at 48 h, 1000 molar ratio [7] [%]
COc1ccc2c(c1)c(CC(=O)O)c(C)n2C(=O)c1ccc(Cl)cc1 [INDOMETHACIN] | 0.3 | 96 |  |  |  |  | 
CC1=C(/C=C/C(C)=C/C=C/C(C)=C/C=C/C=C(C)/C=C/C=C(C)/C=C/C2=C(C)CCCC2(C)C)C(C)(C)CCC1 |  |  | 100 | 34.2 | 82.1 | 8.6 | 
C[C@H](CC[C@@H](O)C(C)(C)O)[C@H]1CC[C@@]2(C)[C@@H]3CC=C4[C@@H](CC[C@H](O)C4(C)C)[C@]3(C)C(=O)C[C@]12C [BRYODULCOSIGENIN] |  |  | 88.9 | 23.6 | 69.3 | 0 | 70
C[C@H](CCC(=O)C(C)(C)O)[C@H]1CC[C@@]2(C)[C@@H]3CC=C4[C@@H](CC[C@H](O)C4(C)C)[C@]3(C)C(=O)C[C@]12C [BRYOSIGENIN] |  |  | 92.7 | 28.9 | 73.5 | 0 | 70
C[C@H](CC[C@@H](O)C(C)(C)O)[C@H]1CC[C@@]2(C)[C@@H]3CC=C4[C@@H](CC[C@H](O[C@@H]5O[C@H](CO)[C@@H](O)[C@H](O)[C@H]5O)C4(C)C)[C@]3(C)C(=O)C[C@]12C [CABENOSIDE D] | 0.6 | 66 | 94.1 | 26.1 | 69.3 | 0 | 60
O=c1c(O)c(-c2ccc(O)c(O)c2)oc2cc(O)cc(O)c12 [QUERCETIN] | 1.6 | 40 |  |  |  |  | 
C[C@H](CC[C@@H](O)C(C)(C)O)[C@H]1CC[C@@]2(C)[C@@H]3C[C@@H]4O[C@]45[C@@H](CC[C@H](O[C@@H]4O[C@H](CO)[C@@H](O)[C@H](O)[C@H]4O)C5(C)C)[C@]3(C)C(=O)C[C@]12C [5ALPHA,6ALPHA-EPOXYCABENOSIDE D] |  |  | 95.3 | 28.6 | 70 | 0 | 60
C[C@H](CCC(=O)C(C)(C)O)[C@H]1CC[C@@]2(C)[C@@H]3CC=C4[C@@H](CC[C@H](O[C@@H]5O[C@H](CO)[C@@H](O)[C@H](O)[C@H]5O[C@@H]5O[C@@H](C)[C@H](O)[C@@H](O)[C@H]5O)C4(C)C)[C@]3(C)C(=O)C[C@]12C [BRYONIOSIDE G] | 0.2 | 90 | 100 | 30.6 | 74.2 | 0 | 60
CC(=O)O[C@@H]1[C@@H](O)[C@@H](O)[C@H](O[C@H]2[C@H](O[C@H]3CC[C@@H]4C(=CC[C@@H]5[C@@]4(C)C(=O)C[C@]4(C)[C@@H]([C@H](C)CC[C@@H](O)C(C)(C)O)CC[C@@]54C)C3(C)C)O[C@H](CO)[C@@H](O)[C@@H]2O)O[C@H]1C [BRYONIOSIDE C] | 0.3 | 83 | 100 | 30.2 | 73.5 | 0 | 60
C[C@H](CCC(=O)C(C)(C)O)[C@H]1CC[C@@]2(C)[C@@H]3CC=C4[C@@H](CC[C@H](O[C@@H]5O[C@H](CO)[C@@H](O)[C@H](O)[C@H]5O)C4(C)C)[C@]3(C)C(=O)C[C@]12C [BRYONIOSIDE F] |  |  | 97.6 | 29.2 | 71.4 | 0 | 60
C[C@H](CC[C@@H](O)C(C)(C)O)[C@H]1CC[C@@]2(C)[C@@H]3CC=C4[C@@H](CC[C@H](O[C@@H]5O[C@H](CO)[C@@H](O)[C@H](O)[C@H]5O[C@@H]5O[C@@H](C)[C@H](O)[C@@H](O)[C@H]5O)C4(C)C)[C@]3(C)C(=O)C[C@]12C [BRYONIOSIDE B] | 0.2 | 94 | 97.4 | 29.9 | 72.7 | 0 | 60
CC(C)(O)CCC(=O)[C@@](C)(O)[C@H]1[C@H](O)C[C@@]2(C)[C@@H]3CC=C4[C@@H](C=C(O[C@@H]5O[C@H](CO)[C@@H](O)[C@H](O)[C@H]5O)C(=O)C4(C)C)[C@]3(C)C(=O)C[C@]12C [BRYOAMARIDE] | 0.7 | 51 | 96 | 28.7 | 71.7 | 0 | 60
C[C@H](C(O)CC(O)C(C)(C)O[C@@H]1O[C@H](CO)[C@@H](O)[C@H](O)[C@H]1O)[C@H]1CC[C@@]2(C)[C@@H]3CC=C4[C@@H](CC[C@H](O)C4(C)C)[C@]3(C)C(=O)C[C@]12C (stereo not given in full) [BRYONIOSIDE E] | 0.2 | 94 | 100 | 37 | 77.2 | 11.6 | 60
C[C@H](CC[C@@H](O)C(C)(C)O[C@@H]1O[C@H](CO)[C@@H](O)[C@H](O)[C@H]1O)[C@H]1CC[C@@]2(C)[C@@H]3CC=C4[C@@H](CC[C@H](O)C4(C)C)[C@]3(C)C(=O)C[C@]12C [BRYONIOSIDE A] |  |  | 100 | 30.4 | 75.1 | 3.4 | 60
